Drawing on patent US20030220361A1, “Nicotinamide derivatives and a tiotropium salt in combination for the treatment of diseases” (priority 2002, published 2003), this text covers IC50 for 52 molecules.

In this test the test system is TNFα release from human peripheral blood mononuclear cells. In words: Inhibition of LPS-stimulated TNFα release from human peripheral blood mononuclear cells (TNFα screen). Type of test: cell-based. The following applies: human PBMC, LPS stimulation, 18 hours incubation, TNFα in supernatant by ELISA. The protocol:
Venous blood is collected from healthy volunteers and the mononuclear cells purified by centrifugation through Histopaque (Ficoll) cushions. TNFα production from these cells is stimulated by addition of lipopolysaccharide. After 18 hours incubation in the presence of LPS, the cell supernatant is removed and the concentration of TNFa in the supernatant determined by ELISA. Addition of PDE4 inhibitors reduces the. amount of TNFQ produced. An IC50 is determined which is equal to the concentration of compound that gives 50% inhibition TNFα production as compared to the LPS stimulated control wells.
In general terms: In an ELISA, binding on a coated surface is turned into a signal by an enzyme label.
With `O=C(N[C@H]1CC[C@H](NC(=O)c2cc(F)cnc2Oc2ccc(F)cc2)CC1)c1cc(O)ccc1O` [Example 26], the IC50 was determined as 5.4 nM.
`O=C(NC1CCN(C(=O)c2cc(F)ccc2O)CC1)c1cc(F)cnc1Oc1ccc(F)cc1` [Example 85] gave an IC50 of 28 nM.
Take `O=C(Cc1ccc(O)c(Cl)c1)N[C@H]1CC[C@@H](NC(=O)c2cc(F)cnc2Oc2ccc(F)cc2)CC1` [Example 58]: the IC50 was found to be 3.5 nM.
In turn, `Cc1ccc(C(=O)NC2CCC(NC(=O)c3cc(F)cnc3Oc3ccc(F)cc3)CC2)c(O)c1` (stereo not drawn) [Example 47, Syn-5-Fluoro-2-(4-fluoro-phenoxy)-N-[4-(2-hydroxy-4-methyl-benzoylamino)-cyclohexyl]-nicotinamide] returned an IC50 of 0.28 nM. This IC50 lies about 12-fold lower than the previous one.
Molecule `O=C(N[C@H]1CC[C@@H](NC(=O)c2cc(F)cnc2Oc2ccc(F)c(F)c2)CC1)c1ccccc1O` [Example 190] came in with an IC50 of 0.06 nM. Against the preceding molecule, the IC50 is about 4.7-fold lower.
`O=C(O)c1ccnc(C(=O)N[C@H]2CC[C@@H](NC(=O)c3cc(F)cnc3Oc3ccc(F)cc3)CC2)c1` [Example 135]: the IC50 came out at 74 nM. This IC50 is about 1200-fold higher than that of the molecule before.
`O=C(N[C@H]1CC[C@H](NC(=O)c2cc(F)cnc2Oc2ccc(F)cc2)CC1)c1cc(Cl)ccc1O` [Example 20] came in with an IC50 of 113 nM.
The molecule `COC(=O)c1cccc(C(=O)N[C@H]2CC[C@@H](NC(=O)c3cc(F)cnc3Oc3ccc(F)cc3)CC2)n1` [Example 123] displayed an IC50 of 21 nM.
The same measure for `O=C(NC1CCC(NC(=O)c2c(O)cccc2F)CC1)c1cc(F)cnc1Oc1ccc(F)c(F)c1` (stereo not drawn) [Example 41, Anti-5-Fluoro-2-(3,4-difluoro-phenoxy)-N-[4-(2-fluoro-6-hydroxy-benzoylmino)-cyclohexyl]-Nicotinamide]: 4.9 nM.
The molecule `Cc1ccc(O)c(C(=O)N[C@H]2CC[C@H](NC(=O)c3cc(F)cnc3Oc3ccc4c(c3)OCO4)CC2)c1` [Example 8] returned an IC50 of 22 nM.
Regarding `O=C(N[C@H]1CC[C@H](NC(=O)c2ncccc2O)CC1)c1cc(F)cnc1Oc1ccc(F)cc1` [Example 27], 39.5 nM corresponded to half-maximal inhibition (IC50). This IC50 is about 1.8-fold higher than that of the molecule before.
Regarding `O=C(N[C@H]1CC[C@@H](NC(=O)c2cc(F)cnc2Oc2ccc(F)c(F)c2)CC1)c1ccc(Cl)cc1O` [Example 186], the IC50 is 0.2 nM. This IC50 is about 200-fold lower than that of the molecule before.
In turn, `COc1ccc(C(=O)N[C@H]2CC[C@@H](NC(=O)c3cc(F)cnc3Oc3ccc4c(c3)CCC4)CC2)c(O)c1` [Example 159] displayed an IC50 of 4.6 nM.
With `COc1cc(O)c(C(=O)N[C@H]2CC[C@H](NC(=O)c3cc(F)cnc3Oc3ccc(F)cc3)CC2)c(OC)c1` [Example 30], half-maximal inhibition (IC50) required 2.6 nM. Compared with the last molecule, the IC50 is about 1.8-fold lower.
`Cc1ccc(C(=O)N[C@H]2CC[C@@H](NC(=O)c3cc(F)cnc3Oc3cccc(OC(F)(F)F)c3)CC2)c(O)c1` [Example 195, Syn-5-Fluoro-N-[4-(2-hydroxy-4-methyl-benzoylamino)-cyclohexyl]-2-(3-trifluoromethoxy-phenoxy)-nicotinamide] displayed an IC50 of 0.4 nM.
To `O=C(Cc1ccc(O)c(F)c1)N[C@H]1CC[C@@H](NC(=O)c2cc(F)cnc2Oc2ccc(F)cc2)CC1` [Example 56] belongs 1.9 nM; to `COc1ccc(C(=O)N[C@H]2CC[C@H](NC(=O)c3cc(F)cnc3Oc3ccc(F)cc3)CC2)c(O)c1` [Example 23], 7.8 nM.
The same measure for `COc1cc(C(=O)O)ccc1C(=O)N[C@H]1CC[C@@H](NC(=O)c2cc(F)cnc2Oc2ccc(F)cc2)CC1` [Example 137]: 16 nM; for `Cc1ccc(C(=O)N[C@H]2CC[C@@H](NC(=O)c3cc(F)cnc3Oc3cccc(C(F)(F)F)c3)CC2)c(O)c1` [Example 199]: 0.7 nM.
Regarding `O=C(N[C@H]1CC[C@H](NC(=O)c2ccc3ccccc3c2O)CC1)c1cc(F)cnc1Oc1ccc(F)cc1` [Example 22], the midpoint of inhibition, the IC50, lay at 156 nM.
For `O=C(NC1CCN(C(=O)c2ccc3ccccc3c2O)CC1)c1cc(F)cnc1Oc1ccc(F)cc1` [Example 81], the IC50 turned out to be 30 nM.
On to `O=C(Cc1ccccc1O)N[C@H]1CC[C@@H](NC(=O)c2cc(F)cnc2Oc2ccc(F)cc2)CC1` [Example 51], for which inhibition was half-maximal at 2.09 nM (IC50). This IC50 lies about 14-fold lower than the previous one.
As to `CC(C)(CC(=O)N[C@H]1CC[C@@H](NC(=O)c2cc(F)cnc2Oc2ccc(F)cc2)CC1)C(=O)O` [Example 129], it took 30 nM to reach half-maximal inhibition (IC50).
`Cc1ccc(C(=O)N[C@H]2CC[C@@H](NC(=O)c3cc(F)cnc3Oc3cccc(Br)c3)CC2)c(O)c1` [Example 201] returned an IC50 of 0.3 nM.
Molecule `O=C(N[C@H]1CC[C@@H](NC(=O)c2cc(F)cnc2Oc2ccc(F)cc2)CC1)c1cccc(O)c1` [Example 48] displayed an IC50 of 1.66 nM.
For the molecule `Cc1ccc(O)c(C(=O)NC2CCC(NC(=O)c3cc(F)cnc3Oc3cccc(F)c3)CC2)c1` (stereo not shown) [Example 213], the IC50 was found to be 0.2 nM.
Consider `Cc1ccc(C(=O)NC2CCC(NC(=O)c3cc(F)cnc3Oc3cc(F)cc(F)c3)CC2)c(O)c1` (stereo not shown) [Example 217], for which the IC50 came out at 0.3 nM.
The same measure for `COc1ccc(C(=O)N[C@H]2CC[C@@H](NC(=O)c3cc(F)cnc3Oc3ccc(F)c(Cl)c3)CC2)c(O)c1` [Example 156]: 0.14 nM; for `COc1ccc(O)c(C(=O)N[C@H]2CC[C@@H](NC(=O)c3cc(F)cnc3Oc3ccc(F)c(F)c3)CC2)c1` [Example 187]: 0.006 nM.
The same measure for `O=C(NC1CCN(C(=O)c2cccc(O)c2)CC1)c1cc(F)cnc1Oc1ccc(F)cc1` [Example 80]: 7.4 nM; for `O=C(NCc1ccccc1O)NC1CCC(NC(=O)c2cc(F)cnc2Oc2ccc(F)cc2)CC1` (stereo not drawn) [Example 72, Syn-5-Fluoro-2-(4-fluoro-phenoxy)-N-{4-[3-(2-hydroxy-benzyl)-ureido]-cyclohexyl}-nicotinamide]: 1.1 nM; for `Cc1cccc(C(=O)NC2CCC(NC(=O)c3cc(F)cnc3Oc3ccc(F)c(F)c3)CC2)c1O` (stereo not shown) [Example 208]: 0.09 nM.
`Cc1cccc(C(=O)NC2CCC(NC(=O)c3cc(F)cnc3Oc3ccc(Cl)c(F)c3)CC2)c1O` (stereo not shown) [Example 210]: the IC50 worked out at 13 nM.
To `O=C(N[C@H]1CC[C@H](NC(=O)c2cc(F)cnc2Oc2ccc3c(c2)OCO3)CC1)c1ccc(O)cc1` [Example 6] belongs 23.5 nM.
For `COc1ccc(C(=O)N[C@H]2CC[C@@H](NC(=O)c3cc(F)cnc3Oc3ccc(F)cc3)CC2)cc1O` [Example 54], half-maximal inhibition (IC50) was put at 2.8 nM.
The same measure for `O=C(NC1CCC(NC(=O)C(O)C2CCCCC2)CC1)c1cc(F)cnc1Oc1ccc(F)cc1` (stereo not shown) [Example 106]: 3.6 nM; for `Cc1ccc(C(=O)N2CCC(NC(=O)c3cc(F)cnc3Oc3ccc(F)cc3)CC2)c(O)c1` [Example 79, 5-Fluoro-2-(4-fluoro-phenoxy)-N-[1-(2-hydroxy-4-methyl-benzoyl)-piperidin-4-yl]-nicotinamide]: 25.5 nM.
Consider `Cc1ccc(C(=O)N[C@H]2CC[C@@H](NC(=O)c3cc(F)cnc3Oc3ccc(F)c(Cl)c3)CC2)c(O)c1` [Example 200], for which inhibition was half-maximal at 0.05 nM (IC50).
The same measure for `CCc1cccc(Oc2ncc(F)cc2C(=O)N[C@H]2CC[C@@H](NC(=O)c3ccc(OC)cc3O)CC2)c1` [Example 157]: 2 nM; for `O=C(N[C@H]1C[C@H]2CC[C@@H](C1)N2C(=O)Cc1ccc(O)cc1)c1cc(F)cnc1Oc1ccc(F)cc1` [Example 92, endo-5-Fluoro-2-(4-fluoro-phenoxy)-N-{8-[2-(4-hydroxy-phenyl)-acetyl]-8-aza-bicyclo[3.2.1]oct-3-yl}-nicotinamide]: 185 nM.
Molecule `O=C(N[C@H]1CC[C@@H](C(=O)NCc2ccccc2O)CC1)c1cccnc1Oc1ccc(F)cc1` [Example 172, Syn-2-(4-Fluoro-phenoxy)-N-[4-(2-hydroxy-benzyl-carba-moyl)-cyclohexyl]-nicotinamide] gave an IC50 of 4.3 nM.
Take `Cc1ccc(O)c(C(=O)N[C@H]2CC[C@@H](NC(=O)c3cc(F)cnc3Oc3ccc(F)c(F)c3)CC2)c1` [Example 174, Syn-2-(3.4-Difluoro-phenoxy)-5-fluoro-N-[4-(2-hydroxy-5-methyl-benzoylamino)-cyclohexyl]-nicotinamide]: the IC50 came out at 0.014 nM. Compared with the last molecule, the IC50 is about 310-fold lower.
The same measure for `O=C(N[C@H]1CC[C@@H](C(=O)NCc2ccc(O)cc2F)CC1)c1cccnc1Oc1ccc(F)cc1` [Example 173, Syn-N-[4-(2-Fluoro-4-hydroxy-benzyl-carbamoyl)-cyclohexyl]-2-(4-fluoro-phenoxy)-nicotinamide]: 2.1 nM.
The same measure for `O=C(O)c1ccccc1C(=O)N1[C@@H]2CC[C@H]1C[C@H](NC(=O)c1cc(F)cnc1Oc1ccc(F)cc1)C2` [Example 100, exo-2-(3-{[5-Fluoro-2-(4-fluoro-phenoxy)-pyridine-3-carbonyl]-amino}8-aza-bicyclo[3.2.1]octane-8-carbonyl}-benzoic Acid]: 56 nM.
In turn, `CC(=O)N(Cc1ccccc1O)C1CCC(NC(=O)c2cc(F)cnc2Oc2ccc(F)cc2)CC1` (stereo not drawn) [Example 44, Anti-N-{4-[Acetyl-(2-hydroxybenzyl)-amino]-cyclohexyl}-5-fluoro-2-(4-fluoro-phenoxy)-nicotinamide] displayed an IC50 of 91 nM.
The molecule `O=C(N[C@H]1CC[C@@H](NC(=O)c2c(O)cccc2O)CC1)c1cc(F)cnc1Oc1ccc(F)c(F)c1` [Example 178] came in with an IC50 of 0.15 nM. Against the preceding molecule, the IC50 is about 610-fold lower.
Molecule `O=C(N[C@H]1CC[C@@H](NC(=O)c2cc(F)cnc2Oc2ccc(F)c(F)c2)CC1)c1cc(CO)ccc1O` [Example 183] registered an IC50 of 0.07 nM.
As for `O=C(N[C@H]1CC[C@H](NC(=O)c2c(O)cccc2F)CC1)c1cc(F)cnc1Oc1ccc(F)cc1` [Example 17], the IC50 amounted to 8.5 nM.
The same measure for `O=C(Cc1cccc(O)c1)N[C@H]1CC[C@H](NC(=O)c2cc(F)cnc2Oc2ccc(F)cc2)CC1` [Example 25]: 8.5 nM; for `O=C(N[C@H]1CC[C@@H](NC(=O)c2cc(F)cnc2Oc2ccc(F)c(F)c2)CC1)c1cc(Cl)c(Cl)cc1O` [Example 193]: 9 nM.
The molecule `O=C(CCc1cccc(O)c1)N[C@H]1CC[C@H](NC(=O)c2cc(F)cnc2Oc2ccc(F)cc2)CC1` [Example 28] had an IC50 of 217 nM. This IC50 is about 24-fold higher than that of the molecule before.
Take `COc1ccc(C(=O)N[C@H]2CC[C@@H](NC(=O)c3cc(F)cnc3Oc3ccc(F)c(F)c3)CC2)c(O)c1` [Example 155]: half-maximal inhibition (IC50) was put at 0.09 nM.

In general, IC50 refers to the midpoint of a concentration-inhibition curve. A lower IC50 goes with greater potency in that assay.
